The text below walks through data of patent US12637424B2, “Pharmaceutical salt of an arylpyrrole derivative” (SENTINEL ONCOLOGY LIMITED, priority 2020, dated 2026).

Holding throughout (assay type): cell-based
The subject of assay [1] is U87MG Human Glioblastoma Cancer Cell. Put plainly: U87MG cell viability (SRB assay). The settings on record: 72 hours, read-out: IC50 for inhibition of cell growth. On the procedure: The following protocol was used to measure the effects of atropisomers A-1 and A-2 on U87MG cell viability. U87MG cells were grown in their recommended growth media/supplements (ATCC). Cells were seeded at a concentration of 5000 cells per well into 96 well plates overnight at 37° C., 5% CO2. Cells were treated with relevant concentrations of test compound for 72 hours. After 72 h incubation, viability was established using sulforhodamine B (SRB) colorimetric assay. Percentage viability was calculated against the mean of the DMSO treated control samples, and IC50 values for inhibition of cell growth were calculated using GraphPad Prism software by nonlinear regression (4 parameter logistic equation).

The subject of a further assay is A549. The assay is described as follows: Cancer cell line panel proliferation (CellTiter-Glo). The settings on record: A549, Lung, 72 hours. On the procedure:
(§1) Screening against diverse cancer cell lines was performed to identify tumour types displaying sensitivity to atropisomers A-1 and A-2. A panel of 48 cancer-derived cell lines was screened in a high-throughput proliferation assay using dilutions of atropisomers A-1/A-2. Cell lines that were screened included those representing cancer of the pancreas, large intestine/colorectum, lung, brain and nerves, and lymphoma and leukaemia cell lines. Cell lines were treated with serial half-log dilutions of compound and assayed 72 hours later for proliferation using CellTiter-Glo Assay (Promega). IC50 values were calculated by fitting the dose-response data using a nonlinear regression model.

For the next assay, the system named is AsPC-1. Described as above. Particulars: AsPC-1, Pancreas, 72 hours. On the procedure: as §1
The subject of the next assay is DOHH-2. The description is as above. Particulars: DOHH-2, Blood/Lymphoma, 72 hours. Here is the method:
as §1

The next assay relates to Daoy. The description is as above. Particulars: Brain&Nerves, 72 hours. On the procedure: as §1
In the next assay the test system is Daudi. Described as above. The settings on record: Blood/Lymphoma, 72 hours. Here is the method:
as §1

The subject of another assay is HT-29. Described as above. The settings on record: HT-29, Large intestine/Colorectum, 72 hours. On the procedure:
as §1

The subject of a further assay is JeKo-1. The assay is described as above. Particulars: JeKo-1, Blood/Lymphoma, 72 hours. On the procedure: as §1
The subject of a further assay is ML-2. The description is as above. Particulars: ML-2, Blood/Leukaemia, 72 hours. Here is the method: as §1
For a further assay, the system named is PANC-1. The assay is described as above. Particulars: PANC-1, Pancreas, 72 hours. Here is the method:
as §1

For the next assay, the system named is RKO. The assay is described as above. Particulars: Large intestine/Colorectum, 72 hours. On the procedure:
as §1

For a further assay, the system named is SK-MES-1. The assay is described as above. Particulars: SK-MES-1, Lung, 72 hours. On the procedure:
as §1

A further assay deals with SU-DHL-6. Described as above. Particulars: SU-DHL-6, Blood/Lymphoma, 72 hours. Here is the method:
as §1

A further assay relates to T98G. The assay is described as above. The settings on record: Brain&Nerves, 72 hours. On the procedure:
as §1

In another assay the test system is U-2932. The description is as above. The settings on record: U-2932, Blood/Lymphoma, 72 hours. Here is the method: as §1
For another assay, the system named is WSU-DLCL2. Described as above. Particulars: WSU-DLCL2, Blood/Lymphoma, 72 hours. On the procedure: as §1
In another assay the test system is HeLa. Put plainly: Mitotic index (phospho-histone H3) assay. The settings on record: Homo sapiens, % mitotic cells (pH3-positive), 24 hours. An excerpt:
(§2) Inhibiting the ability of PLK1 and PLK4 to bind to their partners through their PBDs is known to cause cells to arrest in mitosis. Experimentally, this can be measured by assessing the number of cells which are in mitosis at a certain time after treatment with a test compound by immunofluorescent detection of phosphorylated Histone H3 (pH3), a mark which is only present in mitotic cells. PLK1/4-PBD inhibitors are expected to cause a dose-dependent increase in pH3-positive cells, which is reported as Mitotic Index (MI)—the percentage of cells which, at a given time, are positive for this mitotic mark. Cells were plated at 10 000/well in 96-well plates and incubated overnight. The following day atropisomer A-2 stocks in DMSO were diluted in medium then added to cells with a maximum final DMSO concentration on cells of 0.2%. Cells were incubated with the compound for 24 hours then fixed in 3.7% formaldeyde. Cells were permeabilised with 0.1% Triton X-100 then incubated with anti-phospho-histone H3 (Ser10) antibody (Abcam ab5176). The cells were washed with PBS then incubated with AlexaFluor 488 labelled goat anti-rabbit IgG (Invitrogen A11034) in the presence of 4 ug/ml Hoechst 33342 (Invitrogen H3570). Cells were washed in PBS then imaged on an Arrayscan VTi HCS instrument (Thermo Fisher) using the Target Activation V4 Bioapplication. […]

The subject of a further assay is U87MG. Put plainly: Mitotic index (phospho-histone H3) assay. Particulars: Homo sapiens, U-87 MG; % mitotic cells (pH3-positive), 24 hours.
Text: as §2

SMILES strings stand for the structures. Like-named read-outs stand apart in the source and are kept apart here.

For the molecule `CN(C)CCNC(=O)c1ccc(-c2ccc(-c3ccc(Cl)cc3)n2-c2ccccc2C(F)(F)F)cc1` (single isomer, unassigned) [Atropisomer A-2], the IC50 in [1] (Homo sapiens, U-87 MG) stood at 220 nM; in the assay with A549 (Homo sapiens), 300 nM; in the assay with AsPC-1 (Homo sapiens, ASPC1) it was 2900 nM; in the assay with DOHH-2 (Homo sapiens), 230 nM; in the assay on Daoy (Homo sapiens), 180 nM; in the assay on Daudi (Homo sapiens), 390 nM. For the same molecule, the IC50 in the assay on HT-29 (Homo sapiens) was determined as 450 nM; in the assay on JeKo-1 (Homo sapiens), 190 nM; with ML-2 (Homo sapiens), 180 nM; in the assay on PANC-1 (Homo sapiens) it was 830 nM; in the assay on RKO (Homo sapiens), 160 nM; in the assay on SK-MES-1 (Homo sapiens), 360 nM. The IC50 in the assay with SU-DHL-6 (Homo sapiens) amounted to 260 nM; in the assay with T98G (Homo sapiens), 280 nM; with U-2932 (Homo sapiens, U2932) it was 280 nM; in the assay on WSU-DLCL2 (Homo sapiens, WSUDLCL2), 360 nM. For the same molecule, the EC50 in the assay on HeLa came out at 30 nM; with U87MG, 90 nM.

In the case of `CN(C)CCNC(=O)c1ccc(-c2ccc(-c3ccc(Cl)cc3)n2-c2ccccc2C(F)(F)F)cc1` (single isomer, unassigned; atropisomer a) [Atropisomer A-1], the concentration for half-maximal inhibition (IC50) in assay [1] is 4600 nM; with A549 it was 9190 nM; in the assay on AsPC-1, greater than 10000 nM; with DOHH-2, 5640 nM; in the assay with Daoy it was 7000 nM; in the assay on Daudi it was 7170 nM. The IC50 was 4530 nM with HT-29; 7940 nM with JeKo-1; 4010 nM in the assay with ML-2; greater than 10000 nM in the assay on PANC-1; 6170 nM in the assay on RKO; 7780 nM in the assay on SK-MES-1. Besides, the IC50 in the assay on SU-DHL-6 worked out at 3980 nM; in the assay on T98G, 5260 nM; in the assay on U-2932 it was 4470 nM; with WSU-DLCL2, 6740 nM.
